Measured values: ChEMBL document CHEMBL3885881, “DrugMatrix”

Organism: Rattus norvegicus
Experiment: DrugMatrix - Regimen: Daily Repeat
Assay type: toxicity, organism-based, Sprague-Dawley
Design: regimen Daily Repeat, gender Male, age 6-8 weeks
Conditions: in vivo, po, route oral GAVAGE, vehicle .5 % CMC; for ABSOLUTE BASOPHIL / ABSOLUTE EOSINOPHIL / ABSOLUTE LYMPHOCYTE / ABSOLUTE MONOCYTE / ABSOLUTE SEGMENTED NEUTROPHIL / BASOPHIL / EOSINOPHIL / ERYTHROCYTE COUNT / HEMATOCRIT / HEMOGLOBIN / LEUKOCYTE COUNT / LYMPHOCYTE / MEAN CORPUSCULAR HEMOGLOBIN / MEAN CORPUSCULAR HEMOGLOBIN CONCENTRATION / MEAN CORPUSCULAR VOLUME / MONOCYTE / NEUTROPHIL / NUCLEATED RED BLOOD CELLS / PLATELET COUNT: tissue Blood; for ALANINE AMINOTRANSFERASE / ALBUMIN / ALKALINE PHOSPHATASE / ASPARTATE AMINOTRANSFERASE / BLOOD UREA NITROGEN / CARBON DIOXIDE / CHLORIDE / CHOLESTEROL / CREATINE PHOSPHOKINASE / CREATININE / GLUCOSE / LACTATE DEHYDROGENASE / LIPASE / PHOSPHORUS / POTASSIUM / SODIUM / TOTAL BILIRUBIN / TOTAL PROTEIN / URIC ACID: tissue Plasma
[1] = 20 mg/kg, 120 h, dose level Low, time 5 day
[2] = 1600 mg/kg, 72 h, dose level High, time 3 day
[3] = 1600 mg/kg, 120 h, dose level High, time 5 day

In the case of `NC(=O)N1c2ccccc2CC(=O)c2ccccc21` [OXCARBAZEPINE], the “ABSOLUTE BASOPHIL” value [1] is reported as 0 CELLS/uL, the “ABSOLUTE EOSINOPHIL” value [1] is reported as 112 CELLS/uL and the “ABSOLUTE LYMPHOCYTE” value [1] is reported as 14390.67 CELLS/uL. The “ABSOLUTE MONOCYTE” value [1] was 0 CELLS/uL, the “ABSOLUTE SEGMENTED NEUTROPHIL” value [1] was 964 CELLS/uL and the BASOPHIL [1] was 0%. For the same molecule, the EOSINOPHIL [1] was 0.67%, the “ERYTHROCYTE COUNT” value [1] was 5.76 x10E6/uL and the HEMATOCRIT [1] was 35.97%. For the same molecule, the HEMOGLOBIN [1] was 14.53 G/DL, the “LEUKOCYTE COUNT” value [1] was 15.47 x10E3/uL and the LYMPHOCYTE [1] was 93.33%. The “MEAN CORPUSCULAR HEMOGLOBIN” value [1] was 25.2 pg, the “MEAN CORPUSCULAR HEMOGLOBIN CONCENTRATION” value [1] was 40.4 G/DL and the “MEAN CORPUSCULAR VOLUME” value [1] was 62.37 fL. For the same molecule, the MONOCYTE [1] was 0%, the NEUTROPHIL [1] was 6% and the “NUCLEATED RED BLOOD CELLS” value [1] was 0.33 /100WBC. The “PLATELET COUNT” value [1] was 1403.33 x10E3/uL, the “ALANINE AMINOTRANSFERASE” value [1] was 47.67 u/L and the ALBUMIN [1] was 4.37 G/DL. The “ALKALINE PHOSPHATASE” value [1] was 374.67 u/L, the “ASPARTATE AMINOTRANSFERASE” value [1] was 83.33 u/L and the “BLOOD UREA NITROGEN” value [1] was 17 mg/dL. For the same molecule, the “CARBON DIOXIDE” value [1] was 26.67 mmol/L, the CHLORIDE [1] was 102.33 MEQ/L and the CHOLESTEROL [1] was 67.67 mg/dL. For the same molecule, the “CREATINE PHOSPHOKINASE” value [1] was 246.33 u/L, the CREATININE [1] was 0.16 mg/dL and the GLUCOSE [1] was 163.33 mg/dL. The “LACTATE DEHYDROGENASE” value [1] was 115.33 u/L, the LIPASE [1] was 8.67 u/L and the PHOSPHORUS [1] was 12.83 mg/dL. The POTASSIUM [1] was 6.85 MEQ/L, the SODIUM [1] was 146.7 MEQ/L and the “TOTAL BILIRUBIN” value [1] was 0.17 mg/dL. The “TOTAL PROTEIN” value [1] was 6.17 G/DL, the “URIC ACID” value [1] was 2.23 mg/dL and the “ABSOLUTE BASOPHIL” value [2] was 0 CELLS/uL. The “ABSOLUTE EOSINOPHIL” value [2] was 0 CELLS/uL, the “ABSOLUTE LYMPHOCYTE” value [2] was 14109.67 CELLS/uL and the “ABSOLUTE MONOCYTE” value [2] was 56.33 CELLS/uL. The “ABSOLUTE SEGMENTED NEUTROPHIL” value [2] was 1034 CELLS/uL, the BASOPHIL [2] was 0% and the EOSINOPHIL [2] was 0%. For the same molecule, the “ERYTHROCYTE COUNT” value [2] was 6.38 x10E6/uL, the HEMATOCRIT [2] was 39.5% and the HEMOGLOBIN [2] was 15.47 G/DL. The “LEUKOCYTE COUNT” value [2] was 15.2 x10E3/uL, the LYMPHOCYTE [2] was 93.33% and the “MEAN CORPUSCULAR HEMOGLOBIN” value [2] was 24.27 pg. The “MEAN CORPUSCULAR HEMOGLOBIN CONCENTRATION” value [2] was 39.2 G/DL, the “MEAN CORPUSCULAR VOLUME” value [2] was 61.93 fL and the MONOCYTE [2] was 0.33%. The NEUTROPHIL [2] was 6.33%, the “NUCLEATED RED BLOOD CELLS” value [2] was 0 /100WBC and the “PLATELET COUNT” value [2] was 1432 x10E3/uL. For the same molecule, the “ALANINE AMINOTRANSFERASE” value [2] was 82.67 u/L, the ALBUMIN [2] was 4.43 G/DL and the “ALKALINE PHOSPHATASE” value [2] was 485.33 u/L. The “ASPARTATE AMINOTRANSFERASE” value [2] was 91 u/L, the “BLOOD UREA NITROGEN” value [2] was 16.33 mg/dL and the “CARBON DIOXIDE” value [2] was 31 mmol/L. For the same molecule, the CHLORIDE [2] was 101 MEQ/L, the CHOLESTEROL [2] was 73 mg/dL and the “CREATINE PHOSPHOKINASE” value [2] was 195 u/L. The CREATININE [2] was 0.2 mg/dL, the GLUCOSE [2] was 116 mg/dL and the “LACTATE DEHYDROGENASE” value [2] was 266 u/L. For the same molecule, the LIPASE [2] was 11 u/L, the PHOSPHORUS [2] was 10.13 mg/dL and the POTASSIUM [2] was 6.83 MEQ/L. The SODIUM [2] was 145.67 MEQ/L, the “TOTAL BILIRUBIN” value [2] was 0.17 mg/dL and the “TOTAL PROTEIN” value [2] was 5.8 G/DL. For the same molecule, the “URIC ACID” value [2] was 1.43 mg/dL, the “ABSOLUTE BASOPHIL” value [3] was 0 CELLS/uL and the “ABSOLUTE EOSINOPHIL” value [3] was 0 CELLS/uL. For the same molecule, the “ABSOLUTE LYMPHOCYTE” value [3] was 15797.33 CELLS/uL, the “ABSOLUTE MONOCYTE” value [3] was 212.67 CELLS/uL and the “ABSOLUTE SEGMENTED NEUTROPHIL” value [3] was 2156.67 CELLS/uL. The BASOPHIL [3] was 0%, the EOSINOPHIL [3] was 0% and the “ERYTHROCYTE COUNT” value [3] was 5.81 x10E6/uL. For the same molecule, the HEMATOCRIT [3] was 36.23%, the HEMOGLOBIN [3] was 14.8 G/DL and the “LEUKOCYTE COUNT” value [3] was 18.17 x10E3/uL. For the same molecule, the LYMPHOCYTE [3] was 87.33%, the “MEAN CORPUSCULAR HEMOGLOBIN” value [3] was 25.47 pg and the “MEAN CORPUSCULAR HEMOGLOBIN CONCENTRATION” value [3] was 40.83 G/DL. The “MEAN CORPUSCULAR VOLUME” value [3] was 62.33 fL, the MONOCYTE [3] was 1% and the NEUTROPHIL [3] was 11.67%. The “NUCLEATED RED BLOOD CELLS” value [3] was 0 /100WBC, the “PLATELET COUNT” value [3] was 1349.67 x10E3/uL and the “ALANINE AMINOTRANSFERASE” value [3] was 60.67 u/L. The ALBUMIN [3] was 4.5 G/DL, the “ALKALINE PHOSPHATASE” value [3] was 338.67 u/L and the “ASPARTATE AMINOTRANSFERASE” value [3] was 86.33 u/L. For the same molecule, the “BLOOD UREA NITROGEN” value [3] was 17.33 mg/dL, the “CARBON DIOXIDE” value [3] was 23.33 mmol/L and the CHLORIDE [3] was 99 MEQ/L. The CHOLESTEROL [3] was 93.67 mg/dL, the “CREATINE PHOSPHOKINASE” value [3] was 336.33 u/L and the CREATININE [3] was 0.28 mg/dL. The GLUCOSE [3] was 123 mg/dL, the “LACTATE DEHYDROGENASE” value [3] was 512.67 u/L and the LIPASE [3] was 13 u/L. The PHOSPHORUS [3] was 13.6 mg/dL, the POTASSIUM [3] was 7.68 MEQ/L and the SODIUM [3] was 142.17 MEQ/L. For the same molecule, the “TOTAL BILIRUBIN” value [3] was 0.23 mg/dL, the “TOTAL PROTEIN” value [3] was 6.43 G/DL and the “URIC ACID” value [3] was 2.07 mg/dL.
